Laboratory results: patent publication US6509377B1, “Use of a 2-hydroxy-4-trifluoromethylbenzoic acid derivatives as inhibitors of the activation of the nuclear transcription factor NF-κB” (J. Uriach & Cia, S.A., priority 1999, dated 2003)

Experiments:
NF-κB = assay: Activation of NF-κB induced by LPS in human PBMC (EMSA); format: cell-based; settings: human PBMCs, HTB 1-3 mM, 1 hour, then LPS 10 μg/ml 10 minutes
Procedure: Mononuclear cells (PBMC) were obtained from blood of healthy donors from the Hospital de Sant Pau (Barcelona) who had not taken any antiinflammatory drug during a period of not less than 2 weeks before blood extraction. Starting from a volume of about 80 ml of heparinized human blood (10 U/ml), this was diluted (1:1) with PBS (pH 7.4; Dulbecco) without calcium, magnesium nor sodium bicarbonate.
15 ml of Ficoll solution (d=1.077 at 20° C.; Biochrom KG) were placed in 50-ml Falcon tubes. To this solution a volume of about 25 ml per tube of the blood previously diluted with PBS was carefully added and the tubes were then centrifuged at 1,200 g for 20 minutes. Mononuclear cells concentrate on a whitish interphase between the plasma and the Ficoll solution. This interphase was collected with a Pasteur pipette and was diluted 1:1 with PBS. It was then centrifuged at 300 g for 10 min. The resulting pellet was resuspended in 50 ml PBS and was again centrifuged at 200 g for 10 min, in order to remove platelet contamination. […]
Prior to the various treatments, cell viability was determined by the Trypan Blue exclusion assay. […]
After incubation, PBMCs were washed twice with PBS and the degree of activation (binding to DNA) of the transcription factor NF-κB was determined using the EMSA assay, described in detail in Example 1.

[1] = Cell viability of COLO 205 cells (EZ4U); format: cell-based; settings: human, COLO 205 cells (colon adenocarcinoma), read-out: Percentage of cell viability
Procedure: Several cell lines obtained from the American Type Culture Collection (ATCC) were cultured at 37° C. and under a 5% CO2 atmosphere. Each cell line was grown in an appropriate culture medium and within the exponential phase (Table I).
For the cell viability studies 24-well plates were used, where 0.5×10^6 cells/ml (for 24-hour studies), 0.25×10^6 cells/ml (for 48-hour studies) or 0.125×10^6 cells/ml (for 72-hour studies) were incubated. Next, different concentrations of HTB (1-3 mM) were added and cells were incubated for different time periods (37° C., 5% CO2). After incubation, the supernatant from each well was extracted, and cells were washed with culture medium without fetal calf serum. Then, the supernatant was extracted and 200 μl culture medium without fetal calf serum were added to each well. In addition, 20 μl substrate were added to determine cell viability. This method is based on the ability of viable cells to transform the colourless substrate into a coloured substance that is excreted to the supernatant (EZ4U, Biomedica Gmbh.). After incubating cells for 1 hour at 37° C. and 5% CO2, 200 μl supernatant were collected and the absorbance was measured at 450 nm.
The absorbance was also determined at 620 nm as a measure of the existing non-specific value.

[2] = system: human peripheral blood mononuclear cells (PBMC); assay: Cell viability controls of human PBMC (MTT assay); format: cell-based; settings: Example 3, HTB 1-3 mM with LPS, 3 mM without LPS
Procedure: Prior to the various treatments, cell viability was determined by the Trypan Blue exclusion assay. Cells were diluted at a concentration of 2.5 million/ml with RPMI medium containing 10% fetal calf serum and were incubated (37° C., 5% CO2) 1 hour in 6-well plates (2 ml/well, 5 million PBMC) without adding any drug (control) or adding HTB (1-3 mM). Next, cells were incubated for further 10 minutes in the presence of 10 μg/ml E.coli lipopolysaccharide (LPS, 026:B6 serotype; Sigma). After incubation, a sample (100 μl) was taken in order to carry out a cell count as well as cell viability controls by measuring the ability of mitochondrial dehydrogenases to convert the soluble tetrazolium salt, MTT the insoluble product formazan (MTT assay). Cells were also incubated with HTB (3 mM) in the absence of LPS. In all cases, cell viability was equal to or higher than 95%.
Cells were diluted at a concentration of 2.5 million/ml with RPMI medium containing 10% fetal calf serum and were incubated (37° C., 5% CO2) 19 hours in 6-well plates (2 ml/well, 5 million PBMC). Incubations were carried out in the presence of 10 μg/ml E.coli lipopolysaccharide (LPS, 026:B6 serotype; Sigma) without adding any drug (control) or adding Triflusal or HTB (0.1-5 mM). Prior to incubations, cell viability controls were performed using the Trypan Blue exclusion assay. […]

COX-2 = assay: PGE2 production in rat exudate (carrageenan air pouch); format: in vivo; settings: oral 3-30 mg/kg, 6 h
Procedure: Lewis rats (175-200 g) were used in this study. Rats were randomly distributed in groups of 5 animals. An, air pouch was produced by subcutaneous injection of 20 ml of sterile air into the intrascapular area of animals in each group. Every two days, 10 ml of air were injected again into the cavity to keep the space open. Seven days after the first injection of air, 2 ml of a 1% carrageenan solution was injected into the air pouch in all groups to produce an inflammatory reaction. Test compound was administered orally 30 min before carrageenan administration. The animals were killed 6 h later and the volume of exudate was measured. The type and number of cells present were determined using standard Wright-Giemsa staining and a Coulter Counter cell counter, respectively. The exudate was centrifuged at 400 g at 4° C. for 7 min and PGE2 concentration was determined by enzyme-immunoassay (Amershan-Biotrak RPN222). The cell pellet was resuspended in 2 ml cold 0.85% NaCl. To eliminate red cell contamination, cells were subjected to a selective cellular lysis by the addition of 6 ml cold water for 20 seconds. The isotonicity of the cellular suspension was restored by the addition of 2 ml 3.5% NaCl. […]

Structure (SMILES) | inhibition of the activation of NF-κB induced by LPS (NF-κB) | viability at 0 h, 1 mM ([1]; 1 mM HTB, 0 hours) | viability at 2 h, 1 mM ([1]; 1 mM HTB, 2 hours) | viability at 5 h, 1 mM ([1]; 1 mM HTB, 5 hours) | viability at 24 h, 1 mM ([1]; 1 mM HTB, 24 hours) | viability at 48 h, 1 mM ([1]; 1 mM HTB, 48 hours) | viability at 72 h, 1 mM ([1]; 1 mM HTB, 72 hours) | viability at 0 h, 3 mM ([1]; 3 mM HTB, 0 hours) | viability at 2 h, 3 mM ([1]; 3 mM HTB, 2 hours) | viability at 5 h, 3 mM ([1]; 3 mM HTB, 5 hours) | viability at 24 h, 3 mM ([1]; 3 mM HTB, 24 hours) | viability at 48 h, 3 mM ([1]; 3 mM HTB, 48 hours) | cell viability [2] | inhibition of PGE2 production in the exudate (COX-2)
O=C(O)c1ccc(C(F)(F)F)cc1O [HTB, 2-hydroxy-4-trifluoromethylbenzoic acid] | markedly inhibits | 100% | 100% | 87.2% | 64.8% | 37.4% | 7.6% | 100% | 94.5% | 69.2% | 39.6% | 14.3% | ≥ 95% | –
CC(=O)Oc1cc(C(F)(F)F)ccc1C(=O)O [triflusal, 2-Acetyloxy-4-trifluoromethylbenzoic acid, reference compound] | – | – | – | – | – | – | – | – | – | – | – | – | – | dose-dependently inhibits
